# Reference: patent publication US7732603B2, “Organic compounds as agents for the treatment of aldosterone mediated conditions” (Novartis AG, priority 2002, dated 2010)
# System: not given
# Assay: not given
# Conditions: not given
row,melting point,SMILES
1,249 to 250 °C,"Cl.O=C1C(c2cccc(Br)c2)n2cncc2CN1CC1CC1 (centres unmarked) [Example 32, 5-(3-Bromo-phenyl)-7-cyclopropylmethyl-7,8-dihydro-imidazo[1,5-a]pyrazin-6-one hydrochloride]"
2,236 to 238 °C,Cl.N#Cc1cccc(C2C(=O)N(Cc3ccc(Cl)cc3)Cc3cncn32)c1 (centres unmarked)
3,167 to 168 °C,"C[C@@H](c1ccccc1)N1Cc2cncn2C(c2ccc(Br)cc2)C1=O (single isomer, unassigned; (-)) [Example 61]"
4,275 to 277 °C,Cc1cccc(CN2Cc3cncn3C(c3ccc(C#N)cc3)C2=O)c1.Cl (centres unmarked)
5,246 to 248 °C,COc1ccc(CN2Cc3cncn3C(c3cccc(Br)c3)C2=O)cc1.Cl (centres unmarked)
6,265 °C (dec.),CN1Cc2cncn2C(c2cccc(Br)c2)C1=O.Cl (centres unmarked)
7,123 to 124 °C,"COc1ccc(CN2Cc3cncn3C(c3ccc(Br)cc3)C2=O)cc1 (centres unmarked) [Example 21, 5-(4-Bromo-phenyl)-7-(4-methoxy-benzyl)-7,8-dihydro-imidazo[1,5-a]pyrazin-6-one]"

# The remaining lines, values behind:
row,SMILES,melting point
1,"N#Cc1ccc(C2C(=O)N(Cc3ccccc3)Cc3cncn32)cc1 (centres unmarked) [Example 3, 4-(7-Benzyl-6-oxo-5,6,7,8-tetrahydro-imidazo[1,5-a]pyrazin-5-yl)-benzonitrile]",163 to 165 °C
2,"COc1ccc(CN2Cc3cncn3C(c3ccc(C#N)cc3)C2=O)cc1 (centres unmarked) [Example 9, 4-[7-(4-Methoxy-benzyl)-6-oxo-5,6,7,8-tetrahydro-imidazo[1,5-a]pyrazin-5-yl)-benzonitrile]",155 to 157 °C
3,"C[C@@H](c1ccccc1)N1Cc2cncn2C(c2ccc(C#N)cc2)C1=O (single isomer, unassigned; (-)) [Example 62]",157 to 158 °C
4,"C[C@@H](c1ccc(F)cc1)N1Cc2cncn2C(C)(c2ccc(C#N)cc2)C1=O (some centres unmarked) [Example 86, 4(7-[(s)-1-(4-Fluoro-phenyl)-ethyl]-5-methyl-6-oxo-5,6,7,8-tetrahydro-imidazo[1,5-a]pyrazin-5-yl]-benzonitrile]",78 to 82 °C
5,"CC1(c2ccc(C#N)cc2)C(=O)N(Cc2ccc(F)cc2)Cc2cncn21 (centres unmarked) [Example 85, 4-[7-(4-Fluoro-benzyl)-5-methyl-6-oxo-5,6,7,8-tetrahydro-imidazo[1,5-a]pyrazin-5-yl]-benzonitrile]",66 to 70 °C
6,"N#Cc1ccc(C2C(=O)N(CC3CC3)Cc3cncn32)cc1 (centres unmarked) [Example 1, 4-(7-Cyclopropylmethyl-6-oxo-5,6,7,8-tetrahydro-imidazo[1,5-a]pyrazin-5-yl)-benzonitrile]",146 to 147 °C
7,Cl.N#Cc1ccc(C2C(=O)N(Cc3ccc(Cl)cc3)Cc3cncn32)cc1 (centres unmarked),245 to 246 °C
8,CC1(c2ccc(C#N)cc2)C(=O)N(Cc2ccccc2)Cc2cncn21.Cl (centres unmarked),230 to 232 °C
9,Cl.O=C1C(c2cccc(-c3ccc(F)cc3)c2)n2cncc2CN1Cc1ccccc1 (centres unmarked),235 to 237 °C
10,"O=C1N(Cc2ccc(F)cc2)Cc2cncn2C1(Cc1ccccc1)c1ccc(Br)cc1 (centres unmarked) [Example 87, 5-Benzyl-5-(4-bromo-phenyl)-7-(4-fluoro-benzyl)-7,8-dihydro-imidazo[1,5-a]pyrazin-6-one]",166 to 168 °C

# Biological target: T1, aldosterone synthase (Rattus norvegicus, UniProt P30099)
# T1 construct: The adrenals are decapsulated to obtain the glomerulosa tissue; The tissue is homogenized in a glass homogenizer; from tissue; host or cells: rat adrenal glomerulosa tissue homogenate (900 x g supernatant), sodium-depleted Sprague-Dawley rats
# T1 sequence (P30099 35-510): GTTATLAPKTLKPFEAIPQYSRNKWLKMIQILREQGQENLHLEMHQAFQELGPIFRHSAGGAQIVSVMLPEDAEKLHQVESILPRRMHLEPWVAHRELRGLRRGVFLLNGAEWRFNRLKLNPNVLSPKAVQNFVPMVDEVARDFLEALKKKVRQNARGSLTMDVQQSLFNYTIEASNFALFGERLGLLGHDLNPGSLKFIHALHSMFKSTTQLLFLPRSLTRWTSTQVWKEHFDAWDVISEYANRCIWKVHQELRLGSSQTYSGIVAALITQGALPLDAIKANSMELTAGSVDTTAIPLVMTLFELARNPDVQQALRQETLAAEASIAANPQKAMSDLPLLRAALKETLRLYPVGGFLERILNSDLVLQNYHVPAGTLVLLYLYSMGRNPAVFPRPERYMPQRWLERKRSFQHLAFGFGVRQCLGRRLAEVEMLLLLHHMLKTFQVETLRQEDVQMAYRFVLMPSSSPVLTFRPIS
# Assay: aldosterone synthase inhibitory activity in vitro (rat adrenal glomerulosa homogenate, conversion of [3H]corticosterone)
# Type: biochemical
# Conditions: read-out: inhibit the aldosterone synthase activity with an IC50 value
# Text: The aldosterone synthase inhibitory activity in vitro may be determined as follows:
# Adult male Sprague-Dawley rats weighing 125-150 g are obtained from Harlan Farms. All animals are caged in pairs and maintained under standard conditions of light and temperature. The animals are placed on a sodium depleted diet (0.01-0.02%) from Harland Teklad, Madison Wis. (cat# TD90228) and maintained on normal drinking water ad libitum. The animals are maintained on this diet for two to four weeks prior to harvesting the adrenal glomerulosa cells. The rats are killed by CO2 inhalation, and the adrenals are immediately removed and placed in the same ice-cold buffer used during homogenization and assay of the enzyme preparation. The adrenals are decapsulated to obtain the glomerulosa tissue. The tissue is homogenized in a glass homogenizer containing Tris assay buffer (8.5 mM MgCl2, 2.7 mM CaCl2, 3.13 mM KCl, 7.59 mM NaCl, 0.1% TEA and 50 mM Tris HCl adjusted to pH 7.4). The homogenate is diluted so that 37.5 mg of glomerulosa tissue is in each mL of buffer. […] The plates are scanned for radioactivity with a Bioscan System 200 Imaging Scanner (Bioscan, Ish. DC). The two products of the aldosterone synthase, 18-OH-corticosterone and aldosterone are scraped and counted in a liquid scintillation counter (Beckman LS6000TA, Beckman Instr., Palo Alto, Calif.).
# The IC50s are determined from a logit-log plot (pseudo-Hill plot) according to the equation (see Pratt and Taylor, Eds, “Principles of Drug Action”, Churchill Livingstone Inc, NY (1990)): log P/(100−P)=n log[I][…] where P is the percent competition of specific binding in the presence of a given concentration of inhibitor (I). The slope (Hill Coefficient) and x intercept (IC50) are determined by linear regression of the experimental data. The Km(app) is calculated by a computer program according to the Hanes equation (see Cornish-Bowden, Ed., “Principles of Enzyme Kinetics”, Butterworth & Co., Boston, Mass. (1976)): s/v=Km/V+s/V where Km=Michaelis constant, V=maximum velocity, s=substrate concentration, v=velocity.
row,IC50 [nM],SMILES
1,~9,"Cl.O=C1C(c2cccc(Br)c2)n2cncc2CN1CC1CC1 (centres unmarked) [Example 32, 5-(3-Bromo-phenyl)-7-cyclopropylmethyl-7,8-dihydro-imidazo[1,5-a]pyrazin-6-one hydrochloride]"
2,~4,"N#Cc1ccc(C2C(=O)N(Cc3ccccc3)Cc3cncn32)cc1 (centres unmarked) [Example 3, 4-(7-Benzyl-6-oxo-5,6,7,8-tetrahydro-imidazo[1,5-a]pyrazin-5-yl)-benzonitrile]"
3,~12,"N#Cc1ccc(C2C(=O)N(CC3CC3)Cc3cncn32)cc1 (centres unmarked) [Example 1, 4-(7-Cyclopropylmethyl-6-oxo-5,6,7,8-tetrahydro-imidazo[1,5-a]pyrazin-5-yl)-benzonitrile]"
